# Data published in patent US20150050299A1, “METHODS FOR ENHANCING IMMUNE RESPONSE” (priority 2010, published 2015).
# Where two headings read alike, the source gives them in different places.
# What was measured:
# [1] = tested on: L1210 leukemia; conditions: cited from earlier work
# [2] = tested on: 4T1 breast cancer cells; conditions: mouse, in vivo; cited from earlier work
# [3] = tested on: iNOS protein translation; conditions: read-out: IC50, iNOS protein translation; RAW 264.7 cells; cited from earlier work
# [4] = tested on: iNOS protein translation; conditions: read-out: IC50, iNOS protein translation; peritoneal macrophages; cited from earlier work
# [5] = tested on: UVB-induced skin cancer; conditions: 1% in drinking water for 3 weeks before UVB; untreated control 38%; cited from earlier work
# [6] = tested on: squamous cell carcinomas (SCCs); format: in vivo; conditions: agent alone
# Procedure: The combination therapy of polyamine biosynthesis/uptake inhibition was tested against the K6/ODC transgenic mouse murine squamous cell carcinoma (SCC) model recently described.^98 The K6/ODC model was developed to assess whether ODC overexpression was a contributing cause, or an effect of malignant transformation. […] While most skin tumorigenesis models yielded benign squamous papillomas as the predominant tumor type, when the K6/ODC transgene was expressed on the FVB/N strain background, the majority of tumors that developed were aggressive squamous cell carcinomas. These SCCs appeared as early as 5 weeks after treatment and in high multiplicities (up to four tumors per mouse), making this a very efficient model for SCC induction. Using this model, we were thus able to conclude that over-expression of ODC is a sufficient condition for tumor promotion in mouse skin.^99
# We conducted an in vivo anti-tumor trial of DFMO combined with either the D-C16-acyl Lys-spm conjugate AMXT 1501 (FIG. 4) or the L-C16-alkyl AMXT 1569 analog (FIG. 5) in the K6/ODC SCC model.
# The concentration of AMXT 1501 was 14 μg/ml, or an average daily dose of ˜50-65 μg (equivalent to ˜3 mg/kg/d). […] It is expected that great improvements in the oral bioavailability of AMXT 1501 would result from insightful drug formulation.
# [7] = tested on: B16F1 cells; conditions: 0.5 to 2.0% oral; cited from earlier work
# [8] = tested on: UV-induced tumor challenges; conditions: splenocytes from UV-irradiated treated mice; without treatment 20 of 24; cited from earlier work
# [9] = tested on: L1210 cells; conditions: i.p. 5 mg/kg for 9 days; cited from earlier work
compound,measurement,setting,value
"CCNCCCNCCCCCCCNCCCNCC [BEPH, N,N′-bis[3-(ethylamino)-propyl]-1-7-heptane diamine]",outcome of L1210 leukemia,[1]; T-cell deficient nude mice,not curative
same,effect on tumor or spleen cell polyamine levels,[1]; at the doses used,no effect
same,outcome of L1210 leukemia,[1]; immunocompetent C57BL mice,cured
"c1cc(CN2CCCNCCNCCCNCC2)ccc1CN1CCCNCCNCCCNCC1 [AMD3100, plerixafor]",growth of transplanted 4T1 cells,[2],significantly reduced
NCCCNCCCCNCCCN [spermine],IC50,[3],9.2 µM
same,IC50,[4],9 µM
"NCCC[C@](N)(C(=O)O)C(F)F [DFMO, α-difluoromethylornithine]",occurrence of skin cancer,[5],9%
same,anti-tumor response to single agent,[6],weak effect
same,macrophage mediated cytolysis of B16F1 cells,[7],two-fold augmented
same,recipient mice in which tumors grew,[8],2 of 24
NCCCNCCCCNC(=O)[C@H](O)NC(=O)C[C@@H](O)CCCCN=C(N)N [sperqualin],survival,[9],more than 60 days
